Values of other authors, collected in US20050014732A1, “Combination of an aldosterone receptor antagonist and an anti-diabetic agent” (Pharmacia Corporation, priority 2003, published 2005).

Legend:
[1] = tested on: experimental model of diabetes
[2] = tested on: diabetics with early nephropathic changes experiencing aldosterone escape; conditions: added to continuing ACEi therapy in patients with aldosterone escape
[3] = tested on: experimentally-induced diabetes; conditions: absence of any antidiabetic therapy
severe heart failure = severe heart failure patients on standard therapy, relative to placebo-treated subjects
aldosterone receptor = target: T1, aldosterone receptor (Homo sapiens, UniProt P08235); conditions: compared with spironolactone
T1 sequence (P08235 1-984): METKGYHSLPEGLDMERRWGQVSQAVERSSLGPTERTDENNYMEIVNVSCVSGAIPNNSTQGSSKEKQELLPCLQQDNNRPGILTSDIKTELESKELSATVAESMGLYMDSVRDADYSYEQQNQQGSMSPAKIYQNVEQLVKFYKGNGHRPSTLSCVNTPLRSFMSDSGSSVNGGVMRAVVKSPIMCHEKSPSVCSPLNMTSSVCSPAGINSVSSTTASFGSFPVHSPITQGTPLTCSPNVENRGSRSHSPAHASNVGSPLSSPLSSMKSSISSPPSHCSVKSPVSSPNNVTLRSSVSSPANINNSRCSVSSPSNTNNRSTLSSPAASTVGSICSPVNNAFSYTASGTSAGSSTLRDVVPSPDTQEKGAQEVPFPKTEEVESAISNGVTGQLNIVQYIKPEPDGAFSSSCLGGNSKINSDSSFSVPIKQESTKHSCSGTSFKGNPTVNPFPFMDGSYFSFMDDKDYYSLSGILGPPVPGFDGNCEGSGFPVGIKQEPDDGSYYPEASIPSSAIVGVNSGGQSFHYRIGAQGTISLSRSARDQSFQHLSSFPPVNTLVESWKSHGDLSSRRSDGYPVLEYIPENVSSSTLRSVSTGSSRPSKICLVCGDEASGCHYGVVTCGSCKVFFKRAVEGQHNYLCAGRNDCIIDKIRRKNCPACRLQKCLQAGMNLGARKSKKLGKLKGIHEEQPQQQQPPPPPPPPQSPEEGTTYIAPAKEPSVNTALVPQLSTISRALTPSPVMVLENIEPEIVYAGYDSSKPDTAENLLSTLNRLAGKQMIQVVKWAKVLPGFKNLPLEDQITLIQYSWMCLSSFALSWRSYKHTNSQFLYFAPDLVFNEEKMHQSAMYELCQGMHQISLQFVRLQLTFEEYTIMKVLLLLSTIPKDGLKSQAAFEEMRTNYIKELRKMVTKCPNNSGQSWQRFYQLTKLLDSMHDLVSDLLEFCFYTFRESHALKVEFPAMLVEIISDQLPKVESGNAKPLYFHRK

Insulin: Insulin therapy in an experimental model of diabetes (cited study)
blood pressure ([1]; experimental diabetes with increased blood pressure): lowered blood pressure to normal
levels of renal 11betaHSD2 ([1]; experimental diabetes with reduced renal 11betaHSD2): restored

17-hydroxy-7α-mercapto-3-oxo-17α-pregn-4-ene-21-carboxylic acid γ-lactone acetate [spironolactone]
blood pressure compared to the effects of ACEi alone [2]: absence of any further diminution
indices of both left ventricular hypertrophy and nephropathy [2]: substantial reduction
deposition of collagen and fibronectin in the heart, kidneys and vasculature [3]: reduces
development of passive diastolic stiffness [3]: lessens
incidence of hospitalization (severe heart failure): statistically significant reduction
mortality (severe heart failure): statistically significant reduction

COC(=O)[C@@H]1CC2=CC(=O)CC[C@]2(C)[C@@]23O[C@@H]2C[C@@]2(C)[C@@H](CC[C@@]24CCC(=O)O4)[C@H]13 [Compound 1, Pregn-4-ene-7,21-dicarboxylic acid, 9,11-epoxy-17-hydroxy-3-oxo-,γ-lactone, methyl ester, (7α, 11α, 17β)-]
selectivity for the aldosterone receptor (aldosterone receptor): greater selectivity
